{"source": "patent US20230167088A1", "about": "“1-PYRAZINYLPYRAZOLYL-3-OXYALKYL ACIDS AND THEIR DERIVATIVES, AND THEIR USE FOR CONTROL OF UNDESIRED PLANT GROWTH” (BAYER AKTIENGESELLSCHAFT, priority 2020, published 2023)", "key": {"[1]": {"system": "POAAN", "experiment": "Herbicidal pre-emergence action 2b (doubly sown, 1280 g/ha)", "type": "in vivo, Poa annua", "conditions": "doubly sown pots, dosage 1280 g/ha, visual scoring after about 3 weeks", "description": "(§1) [table] b) Seeds of mono- and dicotyledonous weed plants are placed in plastic pots in sandy loam soil (doubly sown with one species each of mono- or dicotyledonous weed plants per pot) and covered with soil. The compounds of the invention, formulated in the form of wettable powders (WP) or as emulsion concentrates (EC), are then applied onto the surface of the covering soil as aqueous suspension or emulsion with addition of 0.5% additive at a water application rate equivalent to 600 litres per hectare. After the treatment, the pots are placed in a greenhouse and kept under good growth conditions for the trial plants. After about 3 weeks, the effect of the preparations is scored visually in comparison with untreated controls as percentages. For example, 100% activity=the plants have died, 0% activity=like control plants. Tables B16 to B21 below show the effects of selected compounds of the general formula (I) according to Tables 1 and 2 on various harmful plants and at an application rate corresponding to 1280 g/ha, which were obtained by the experimental procedure mentioned above."}, "[2]": {"system": "MATIN", "experiment": "Herbicidal pre-emergence action 2b (doubly sown, 1280 g/ha)", "type": "in vivo, Matricaria inodora", "conditions": "doubly sown pots, dosage 1280 g/ha, visual scoring after about 3 weeks", "description": "as §1"}, "[3]": {"system": "STEME", "experiment": "Herbicidal pre-emergence action 2b (doubly sown, 1280 g/ha)", "type": "in vivo, Stellaria media", "conditions": "doubly sown pots, dosage 1280 g/ha, visual scoring after about 3 weeks", "description": "as §1"}, "[4]": {"system": "AMARE", "experiment": "Herbicidal pre-emergence action 2b (doubly sown, 1280 g/ha)", "type": "in vivo, Amaranthus retroflexus", "conditions": "doubly sown pots, dosage 1280 g/ha, visual scoring after about 3 weeks", "description": "as §1"}, "[5]": {"system": "ECHCG", "experiment": "Herbicidal pre-emergence action 2b (doubly sown, 1280 g/ha)", "type": "in vivo, Echinochloa crus-galli", "conditions": "doubly sown pots, dosage 1280 g/ha, visual scoring after about 3 weeks", "description": "as §1"}, "[6]": {"system": "AMARE", "experiment": "Herbicidal post-emergence action 1a (greenhouse pots, visual rating)", "type": "in vivo, Amaranthus retroflexus", "conditions": "dosage 80 g/ha, visual rating about 3 weeks after treatment", "protocol": "(§2) [table] a) Seeds of monocotyledonous and dicotyledonous weeds and crop plants are placed in sandy loam in plastic or organic plant pots, covered with soil and cultivated in a greenhouse under controlled growth conditions. 2 to 3 weeks after sowing, the test plants are treated at the one-leaf stage. The compounds of the invention, formulated in the form of wettable powders (WP) or as emulsion concentrates (EC), are then sprayed onto the green parts of the plants as aqueous suspension or emulsion with addition of 0.5% additive at a water application rate of 600 1/ha (converted). After the test plants have been kept in the greenhouse under optimum growth conditions for about 3 weeks, the activity of the preparations is rated visually in comparison to untreated controls. For example, 100% activity=the plants have died, 0% activity=like control plants. Tables A1 to A15 below show the effects of selected compounds of the general formula (I) according to Tables 1 and 2 on various harmful plants and an application rate corresponding to 320 g/ha and/or 80 g/ha, which were obtained by the experimental procedure mentioned above."}, "[7]": {"system": "POLCO", "experiment": "Herbicidal post-emergence action 1a (greenhouse pots, visual rating)", "type": "in vivo, Polygonum convolvulus", "conditions": "dosage 80 g/ha, visual rating about 3 weeks after treatment", "protocol": "as §2"}, "[8]": {"system": "VERPE", "experiment": "Herbicidal post-emergence action 1a (greenhouse pots, visual rating)", "type": "in vivo, Veronica persica", "conditions": "visual rating about 3 weeks after treatment", "protocol": "as §2"}, "[9]": {"system": "ABUTH", "experiment": "Herbicidal post-emergence action 1a (greenhouse pots, visual rating)", "type": "in vivo, Abutilon theophrasti", "conditions": "dosage 80 g/ha, visual rating about 3 weeks after treatment", "protocol": "as §2"}, "[10]": {"system": "LOLRI", "experiment": "Herbicidal pre-emergence action 2a (greenhouse pots, visual scoring)", "type": "in vivo, Lolium rigidum", "conditions": "dosage 320 g/ha, visual scoring after about 3 weeks vs untreated controls", "description": "(§3) [table] a) Seeds of monocotyledonous and dicotyledonous weed plants and crop plants are placed in plastic or organic plant pots and covered with soil. The compounds of the invention, formulated in the form of wettable powders (WP) or as emulsion concentrates (EC), are then applied onto the surface of the covering soil as aqueous suspension or emulsion with addition of 0.5% additive at a water application rate of 600 1/ha (converted). After the treatment, the pots are placed in a greenhouse and kept under good growth conditions for the trial plants. After about 3 weeks, the effect of the preparations is scored visually in comparison with untreated controls as percentages. For example, 100% activity=the plants have died, 0% activity=like control plants. Tables B1 to B15 below show the effects of selected compounds of the general formula (I) according to Tables 1 and 2 on various harmful plants and an application rate corresponding to 320 g/ha and/or 80 g/ha, which were obtained by the experimental procedure mentioned above."}, "[11]": {"system": "VIOTR", "experiment": "Herbicidal post-emergence action 1a (greenhouse pots, visual rating)", "type": "in vivo, Viola tricolor", "conditions": "dosage 320 g/ha, visual rating about 3 weeks after treatment", "protocol": "as §2"}, "[12]": {"system": "AMARE", "experiment": "Herbicidal pre-emergence action 2a (greenhouse pots, visual scoring)", "type": "in vivo, Amaranthus retroflexus", "conditions": "dosage 320 g/ha, visual scoring after about 3 weeks vs untreated controls", "description": "as §3"}, "[13]": {"system": "SETVI", "experiment": "Herbicidal pre-emergence action 2a (greenhouse pots, visual scoring)", "type": "in vivo, Setaria viridis", "conditions": "dosage 320 g/ha, visual scoring after about 3 weeks vs untreated controls", "description": "as §3"}, "[14]": {"system": "SETVI", "experiment": "Herbicidal post-emergence action 1a (greenhouse pots, visual rating)", "type": "in vivo, Setaria viridis", "conditions": "rated visually about 3 weeks after treatment, 100% = plants have died, 0% = like control plants", "protocol": "as §2"}, "[15]": {"system": "PHBPU", "experiment": "Herbicidal post-emergence action 1a (greenhouse pots, visual rating)", "type": "in vivo, Pharbitis purpurea", "conditions": "dosage 80 g/ha, visual rating about 3 weeks after treatment", "protocol": "as §2"}, "[16]": {"system": "POAAN", "experiment": "Herbicidal post-emergence action 1b (twin sowing, 1280 g/ha)", "type": "in vivo, Poa annua", "conditions": "dosage 1280 g/ha, visual rating about 3 weeks after treatment", "protocol": "[table] b) Seeds of mono- and dicotyledonous weed plants are placed in plastic pots in sandy loam soil (twin sowing with one species each of mono- or dicotyledonous weed plants per pot), covered with soil and cultivated in a greenhouse under controlled growth conditions. 2 to 3 weeks after sowing, the test plants are treated at the one-leaf stage. The compounds of the invention, formulated in the form of wettable powders (WP) or as emulsion concentrates (EC), are applied to the green parts of the plants as aqueous suspension or emulsion with addition of 0.5% additive at a water application rate equivalent to 600 litres per hectare. After the test plants have been kept in the greenhouse under optimum growth conditions for about 3 weeks, the activity of the preparations is rated visually in comparison to untreated controls. For example, 100% activity=the plants have died, 0% activity=like control plants. Tables A16 to A21 below show the effects of selected compounds of the general formula (I) according to Tables 1 and 2 on various harmful plants and at an application rate corresponding to 1280 g/ha, which were obtained by the experimental procedure mentioned above."}}, "data": [{"smiles": "C=CCNC(=O)COc1nn(-c2cnccn2)c(-c2cccc(F)c2)c1Br", "note": "[II-01]", "values": [{"measurement": "Pre-emergence action at 1280 g/ha against POAAN in %", "setting": "[1]", "value": 100, "unit": "%"}, {"measurement": "Pre-emergence action at 1280 g/ha against MATIN in %", "setting": "[2]", "value": 100, "unit": "%"}, {"measurement": "Pre-emergence action at 1280 g/ha against STEME in %", "setting": "[3]", "value": 100, "unit": "%"}, {"measurement": "Pre-emergence action at 1280 g/ha against AMARE in %", "setting": "[4]", "value": 100, "unit": "%"}, {"measurement": "Pre-emergence action at 1280 g/ha against ECHCG in %", "setting": "[5]", "value": 90, "unit": "%"}]}, {"smiles": "CCOC(=O)CCNC(=O)COc1nn(-c2cnccn2)c(-c2ccc(F)nc2)c1Br", "note": "[II-09]", "values": [{"measurement": "Post-emergence action against AMARE in %", "setting": "[6]", "value": 90, "unit": "%"}, {"measurement": "Post-emergence action against POLCO in %", "setting": "[7]", "value": 80, "unit": "%"}, {"measurement": "Post-emergence action against VERPE in %", "setting": "[8]; dosage 80 g/ha", "value": 90, "unit": "%"}, {"measurement": "Post-emergence action against ABUTH in %", "setting": "[9]", "value": 90, "unit": "%"}]}, {"smiles": "COC(=O)[C@@H](C)Oc1nn(-c2cnccn2)c(-c2cccc(F)c2)c1Br", "note": "[Example 1-20]", "values": [{"measurement": "Pre-emergence action against LOLRI in %", "setting": "[10]", "value": 100, "unit": "%"}, {"measurement": "Post-emergence action against VIOTR in %", "setting": "[11]", "value": 90, "unit": "%"}]}, {"smiles": "COC(=O)COc1nn(-c2cnccn2)c(-c2ccc(F)c(F)c2)c1C#N", "note": "[Example I-23]", "values": [{"measurement": "Pre-emergence action at 1280 g/ha against AMARE in %", "setting": "[4]", "value": 100, "unit": "%"}, {"measurement": "Pre-emergence action at 1280 g/ha against ECHCG in %", "setting": "[5]", "value": 100, "unit": "%"}]}, {"smiles": "COC(=O)C(C)Oc1nn(-c2nccnc2F)c(-c2ccc(F)nc2)c1Br", "note": "(racemic) [Example I-78]", "values": [{"measurement": "Pre-emergence action against AMARE in %", "setting": "[12]", "value": 80, "unit": "%"}, {"measurement": "Post-emergence action against VERPE in %", "setting": "[8]; dosage 320 g/ha", "value": 80, "unit": "%"}, {"measurement": "Pre-emergence action against SETVI in %", "setting": "[13]", "value": 90, "unit": "%"}, {"measurement": "Post-emergence action against SETVI in %", "setting": "[14]; Dosage 80 g/ha", "value": 80, "unit": "%"}, {"measurement": "Post-emergence action against SETVI in %", "setting": "[14]; Dosage 320 g/ha", "value": 100, "unit": "%"}]}, {"smiles": "O=C(COc1nn(-c2cnccn2)c(-c2ccc(F)nc2)c1Br)NCC1CC1", "note": "[II-10]", "values": [{"measurement": "Post-emergence action against AMARE in %", "setting": "[6]", "value": 80, "unit": "%"}, {"measurement": "Post-emergence action against PHBPU in %", "setting": "[15]", "value": 80, "unit": "%"}]}, {"smiles": "COC(=O)C(C)Oc1nn(-c2cnccn2)c(-c2ccccc2)c1Br", "note": "(racemic) [Example I-19]", "values": [{"measurement": "Pre-emergence action at 1280 g/ha against POAAN in %", "setting": "[1]", "value": 100, "unit": "%"}, {"measurement": "Post-emergence action at 1280 g/ha against POAAN in %", "setting": "[16]", "value": 100, "unit": "%"}, {"measurement": "Pre-emergence action at 1280 g/ha against STEME in %", "setting": "[3]", "value": 100, "unit": "%"}, {"measurement": "Pre-emergence action at 1280 g/ha against AMARE in %", "setting": "[4]", "value": 100, "unit": "%"}]}, {"smiles": "COC(=O)CNC(=O)COc1nn(-c2cnccn2)c(-c2ccc(F)nc2)c1Br", "note": "[II-08]", "values": [{"measurement": "Post-emergence action against AMARE in %", "setting": "[6]", "value": 80, "unit": "%"}, {"measurement": "Pre-emergence action against AMARE in %", "setting": "[12]", "value": 90, "unit": "%"}]}, {"smiles": "CC(C)N(C)S(=O)(=O)NC(=O)COc1nn(-c2cnccn2)c(-c2ccc(F)nc2)c1Br", "note": "[II-13]", "values": [{"measurement": "Post-emergence action against AMARE in %", "setting": "[6]", "value": 80, "unit": "%"}, {"measurement": "Pre-emergence action against AMARE in %", "setting": "[12]", "value": 90, "unit": "%"}]}]}
